Test results: patent publication US20240246980A1, “MODULATORS OF MAS-RELATED G-PROTEIN RECEPTOR D AND RELATED PRODUCTS AND METHODS” (Escient Pharmaceuticals, Inc., priority 2022, published 2024)

These compounds were tested against human MRGPRD (Homo sapiens, UniProt Q8TDS7) (assay: MRGPRD antagonist activity, IP-One HTRF assay in CHO cells stably expressing human MRGPRD (versus 100 μM β-Alanine agonist)).
Assay type: cell-based
Procedure, shortened: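 Cells (20,000/well, plated overnight) received antagonist and agonist in buffer with 5.7 mM Tris-HCl, 43 mM NaCl and 50 mM LiCl at pH 8. Incubation ran 1 h at 37 °C, then 1 h at room temperature, before IP-1 HTRF detection. IC50 was fitted from the HTRF ratio, and percent antagonism was taken relative to the maximum efficacy response, given as averages with SEM.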

human MRGPRD, sequence (Q8TDS7 whole entry): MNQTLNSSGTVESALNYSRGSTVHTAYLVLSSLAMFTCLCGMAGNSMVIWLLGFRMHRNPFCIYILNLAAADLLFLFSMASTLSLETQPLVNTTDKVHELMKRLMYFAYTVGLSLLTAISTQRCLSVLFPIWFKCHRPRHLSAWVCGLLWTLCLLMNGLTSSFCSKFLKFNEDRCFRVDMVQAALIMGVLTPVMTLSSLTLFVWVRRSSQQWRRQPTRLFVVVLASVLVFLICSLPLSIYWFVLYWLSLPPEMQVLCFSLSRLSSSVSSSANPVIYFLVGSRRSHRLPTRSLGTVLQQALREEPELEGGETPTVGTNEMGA

| SMILES | IC50 [nM] |
| --- | --- |
| COc1cccc(-c2nn([C@H]3CCCN(C(=O)Nc4cccc(N(C)C)c4)C3)c3ncccc23)c1 [Compound 20-3] | 1000 to 3000 |
| COc1cccc(-c2nn([C@H]3CCCN(C(=O)Nc4ccc(N(C)C)cc4)C3)c3ncccc23)c1 [Compound 20-4] | 1000 to 3000 |
| COc1cccc(-c2nc([C@@H]3CCN(C(=O)Nc4ccccc4F)C3)n3ccccc23)c1 [Compound 21-1, (R)—N-(2-fluorophenyl)-3-(1-(3-methoxyphenyl)imidazo[1,5-a]pyridin-3-yl)pyrrolidine-1-carboxamide] | 500 to 1000 |
| COc1cccc(-c2nc([C@H]3CCN(C(=O)Nc4ccccc4F)C3)n3ccccc23)c1 [Compound 21-2] | 1000 to 3000 |
| CNC(=O)N1CCC[C@H]1c1nc(-c2cccc(OC)c2)c2ccccn12 [Compound 21-3] | > 3000 |
| CNC(=O)N1CCC[C@@H]1c1nc(-c2cccc(OC)c2)c2ccccn12 [Compound 21-4] | > 3000 |
| COc1cccc(-c2nc([C@@H]3CCCN3C(=O)Nc3ccc(N(C)C)cc3)n3ccccc23)c1 [Compound 21-5] | > 3000 |
| COc1cccc(-c2nc([C@H]3CCCN3C(=O)Nc3ccc(N(C)C)cc3)n3ccccc23)c1 [Compound 21-6] | > 3000 |
| COc1cccc(-c2nc(C3CCCN3C(=O)Nc3ccccc3F)n3ccccc23)c1 (stereo not drawn) [Compound 22-1, N-(2-fluorophenyl)-2-(1-(3-methoxyphenyl)imidazo[1,5-a]pyridin-3-yl)pyrrolidine-1-carboxamide] | 1000 to 3000 |

More lines, now with the values ahead:

| IC50 [nM] | SMILES |
| --- | --- |
| > 3000 | COc1cccc(-c2nc(C3CN(C(=O)Nc4cccc(N(C)C)c4)C3)n3ccccc23)c1 [Compound 23-1, N-(3-(dimethylamino)phenyl)-3-(1-(3-methoxyphenyl)imidazo[1,5-a]pyridin-3-yl)azetidine-1-carboxamide] |
| > 3000 | COc1cccc(-c2nc(C3CN(C(=O)Nc4ccc(N(C)C)cc4)C3)n3ccccc23)c1 [Compound 23-2] |
| 100 to 500 | COc1cccc(-c2nn(-c3cccc(C(=O)Nc4ccc(N(C)C)cc4)c3)c3ncccc23)c1 [Compound 24-1, N-(4-(dimethylamino)phenyl)-3-(3-(3-methoxyphenyl)-1H-pyrazolo[3,4-b]pyridin-1-yl)benzamide] |
| 500 to 1000 | COc1cccc(-c2nn(-c3cccc(C(=O)Nc4cccc(N(C)C)c4)c3)c3ncccc23)c1 [Compound 24-2] |
| 1000 to 3000 | COc1cccc(-c2nc(-c3ccc(C(=O)Nc4ccc(N(C)C)cc4)s3)n3ccccc23)c1 [Compound 25-1, N-(4-(dimethylamino)phenyl)-5-(1-(3-methoxyphenyl)imidazo[1,5-a]pyridin-3-yl)thiophene-2-carboxamide] |
| < 100 | COc1cccc(-c2nc(C3CCCN(C(=O)Nc4ccc(N(C)C)cc4)C3)c3ccccn23)c1 (stereo not drawn) [Compound 26-1, N-(4-(dimethylamino)phenyl)-3-(3-(3-methoxyphenyl)imidazo[1,5-a]pyridin-1-yl)piperidine-1-carboxamide] |
